Data published in ChEMBL document CHEMBL1201862, “PubChem BioAssay data set” (2004).
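Dose response: 5 concentrations. Exposure: 48 h. Format: 96-well plates. Endpoint: linear interpolation; highest concentration if not reached. Here, GI50 denotes the concentration required for 50% inhibition of growth.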 The source made the active and inactive calls. No stated cut-off is given here; in the data, active = GI50 up to about 1.1 µM and inactive = higher.

Tests used:
Test in all cases: DTP human tumour cell line panel, 48 h
[1] = test system: OVCAR-8
[2] = test system: SN12C
[3] = test system: EKVX
[4] = test system: MDA-MB-231
[5] = test system: K562
[6] = test system: LOX IMVI
[7] = test system: SF-295
[8] = test system: NCI/ADR-RES
[9] = test system: HOP-62
[10] = test system: U-251
[11] = test system: KM12
[12] = test system: NCI-H460
[13] = test system: SNB-19
[14] = test system: TK-10
[15] = test system: OVCAR-5
[16] = test system: IGROV-1
[17] = test system: HT-29
[18] = test system: SF-268
[19] = test system: NCI-H226
[20] = test system: SNB-75
[21] = test system: OVCAR-3
[22] = test system: COLO 205
[23] = test system: MDA-MB-435
[24] = test system: SW-620
[25] = test system: OVCAR-4
[26] = test system: NCI-H522
[27] = test system: UO-31
[28] = test system: SK-MEL-2
[29] = test system: RPMI-8226
[30] = test system: SK-OV-3
[31] = test system: M14
[32] = test system: CAKI-1
[33] = test system: SR
[34] = test system: HOP-92
[35] = test system: HCT-116
[36] = test system: A498
[37] = test system: ACHN
[38] = test system: CCRF-CEM
[39] = test system: SK-MEL-28
[40] = test system: SF-539
[41] = test system: NCI-H23
[42] = test system: T47D
[43] = test system: Hs-578T
[44] = test system: SK-MEL-5
[45] = test system: HCC 2998
[46] = test system: HCT-15
[47] = test system: 786-0
[48] = test system: PC-3
[49] = test system: MOLT-4
[50] = test system: HL-60
[51] = test system: RXF 393
[52] = test system: DU-145
[53] = test system: MCF7
[54] = test system: UACC-257
[55] = test system: UACC-62
[56] = test system: A549
[57] = test system: Malme-3M
[58] = test system: MDA-N

Measured: GI50

Cc1cc(-c2no[n+]([O-])c2-c2cc(C)sc2S(C)(=O)=O)c(S(C)(=O)=O)s1
inactive: [1] > 100 µM | [2] > 100 µM | [3] > 100 µM | [4] > 100 µM | [5] 83.4 µM | [6] > 100 µM | [7] > 100 µM | [8] > 100 µM | [9] > 100 µM | [10] > 100 µM | [11] > 100 µM | [12] > 100 µM | [13] 20.2 µM | [14] > 100 µM | [15] > 100 µM | [16] > 100 µM | [17] > 100 µM | [18] > 100 µM | [19] > 100 µM | [20] > 100 µM | [21] > 100 µM | [22] > 100 µM | [23] > 100 µM | [24] > 100 µM | [25] > 100 µM | [26] 87.5 µM | [27] > 100 µM | [28] > 100 µM | [29] > 100 µM | [30] > 100 µM | [31] > 100 µM | [32] > 100 µM | [33] > 100 µM | [34] > 100 µM | [35] > 100 µM | [36] > 100 µM | [37] > 100 µM | [38] > 100 µM | [39] > 100 µM | [40] > 100 µM | [41] > 100 µM | [42] 89.5 µM | [43] > 100 µM | [44] > 100 µM | [45] > 100 µM | [47] > 100 µM | [48] > 100 µM | [49] > 100 µM
> 100 µM: [46]

CCOc1cc(/C=C2/C(C)=NN(c3cccc(Cl)c3)/C2=N/c2nc3ccccc3s2)ccc1O
inactive: [1] 30.4 µM | [3] 38.4 µM | [50] 3.3 µM | [4] 24.7 µM | [5] 40.4 µM | [6] 35.9 µM | [7] 24.8 µM | [8] 20.5 µM | [9] 23.2 µM | [10] 20.3 µM | [51] 38.6 µM | [12] 25.5 µM | [14] 36.9 µM | [15] 98.9 µM | [16] 29.6 µM | [17] 41.2 µM | [18] 28.2 µM | [19] 23.7 µM | [20] 34.8 µM | [21] 20 µM | [24] 34.6 µM | [26] 21.9 µM | [27] 19.4 µM | [28] 21.1 µM | [29] 38.3 µM | [30] 23 µM | [31] 24.9 µM | [52] 46.1 µM | [33] 27.9 µM | [34] 23.2 µM | [35] 24.2 µM | [36] 24.2 µM | [37] 24.3 µM | [38] 33.2 µM | [39] 34.7 µM | [40] 24.5 µM | [41] 19.4 µM | [42] 38.6 µM | [43] 29.7 µM | [44] 17.8 µM | [45] 14.3 µM | [47] 32.1 µM | [48] 19.8 µM | [49] 32.7 µM | [53] 28.5 µM | [54] 23.7 µM
21.8 µM: [46]

CC[C@@]1(O)C(=O)OCc2c1cc1n(c2=O)Cc2c-1nc1ccccc1c2/C=N\c1ccc(N[C@@H]2c3cc4c(cc3[C@@H](c3cc(OC)c(O)c(OC)c3)[C@H]3C(=O)OC[C@@H]32)OCO4)cc1
active: [5] 0.0505 µM | [6] < 0.01 µM | [9] < 0.01 µM | [10] 0.0904 µM | [13] 0.0257 µM | [55] < 0.01 µM | [26] 0.0254 µM | [27] 0.0213 µM | [29] 0.0396 µM | [31] < 0.01 µM | [32] < 0.01 µM | [35] 0.0208 µM | [38] < 0.01 µM | [40] < 0.01 µM | [41] 0.0118 µM | [42] < 0.01 µM | [44] 0.0288 µM | [56] 0.0292 µM | [54] 0.189 µM

COc1ccc(Oc2nc3cc(N)cc(N)c3nc2-c2ccccc2)cc1
inactive: [9] 19.2 µM | [29] 10.5 µM | [57] 55.1 µM

NS(=O)(=O)c1ccc(/C=C/c2cccc(O)c2)cc1
inactive: [2] 50.1 µM | [3] 55.1 µM | [4] 38 µM | [7] 46.2 µM | [8] 32.9 µM | [9] > 100 µM | [51] > 100 µM | [12] 27.2 µM | [13] 76.4 µM | [14] 28.7 µM | [15] > 100 µM | [20] 46.8 µM | [21] 25.9 µM | [22] 20 µM | [24] 38.6 µM | [27] 20.4 µM | [28] 25.4 µM | [30] 38.4 µM | [31] 55.6 µM | [52] 47.8 µM | [35] 35.9 µM | [36] 59.6 µM | [58] 36.5 µM | [39] 74.5 µM | [42] 25.6 µM | [57] 75.3 µM | [44] 22.2 µM | [45] 77.4 µM | [47] > 100 µM | [48] 36.7 µM | [53] 38.9 µM | [54] 69.5 µM
